Test results taken from ChEMBL document CHEMBL1201862, “PubChem BioAssay data set” (2004).
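In this assay, cells in 96-well plates receive the compound at five concentrations for 48 hours. Endpoints are linearly interpolated between the surrounding concentrations. At the GI50, growth is halved.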 The source made the active and inactive calls. No stated cut-off is given here; in the data, active = GI50 up to about 1.1 µM and inactive = higher.

Key:
Test in all cases: growth of human tumour cells (NCI), 48 h
UACC-257 = test system: UACC-257
LOX IMVI = test system: LOX IMVI
OVCAR-3 = test system: OVCAR-3
COLO 205 = test system: COLO 205
Hs-578T = test system: Hs-578T
SK-MEL-28 = test system: SK-MEL-28
DU-145 = test system: DU-145
M14 = test system: M14
SF-268 = test system: SF-268
OVCAR-5 = test system: OVCAR-5
PC-3 = test system: PC-3
K562 = test system: K562
NCI/ADR-RES = test system: NCI/ADR-RES
HL-60 = test system: HL-60
NCI-H23 = test system: NCI-H23
HT-29 = test system: HT-29
SK-MEL-5 = test system: SK-MEL-5
SK-OV-3 = test system: SK-OV-3
IGROV-1 = test system: IGROV-1
HOP-92 = test system: HOP-92

SMILES	GI50 (UACC-257)	GI50 (LOX IMVI)	GI50 (OVCAR-3)	GI50 (COLO 205)	GI50 (Hs-578T)	GI50 (SK-MEL-28)	GI50 (DU-145)	GI50 (M14)	GI50 (SF-268)	GI50 (OVCAR-5)	GI50 (PC-3)	GI50 (K562)	GI50 (NCI/ADR-RES)	GI50 (HL-60)	GI50 (NCI-H23)	GI50 (HT-29)	GI50 (SK-MEL-5)	GI50 (SK-OV-3)	GI50 (IGROV-1)	GI50 (HOP-92)
Cc1nc(N)c(N2CCN([N+](=O)[O-])CC2)c(O)n1	> 100 µM (inactive)	> 100 µM (inactive)	> 100 µM (inactive)	> 100 µM (inactive)	> 100 µM (inactive)	> 100 µM (inactive)	> 100 µM (inactive)	> 100 µM (inactive)	> 100 µM (inactive)	> 100 µM (inactive)	> 100 µM (inactive)	> 100 µM (inactive)	> 100 µM (inactive)	> 100 µM (inactive)	> 100 µM (inactive)	> 100 µM (inactive)	–	–	–	–
O=C(CN1CCOCC1)c1ccc2c(c1)oc(=O)n2CCN1CCCCC1	> 100 µM (inactive)	> 100 µM (inactive)	> 100 µM (inactive)	> 100 µM (inactive)	7.8 µM (inactive)	> 100 µM (inactive)	> 100 µM (inactive)	> 100 µM (inactive)	48.3 µM (inactive)	> 100 µM (inactive)	> 100 µM (inactive)	> 100 µM (inactive)	> 100 µM (inactive)	> 100 µM (inactive)	> 100 µM (inactive)	> 100 µM (inactive)	> 100 µM (inactive)	> 100 µM (inactive)	> 100 µM (inactive)	–
CC(C)CC(=O)CC(O)C(Cl)(Cl)Cl (stereo not drawn)	> 100 µM (inactive)	> 100 µM (inactive)	> 100 µM (inactive)	> 100 µM (inactive)	56.2 µM (inactive)	> 100 µM (inactive)	> 100 µM (inactive)	> 100 µM (inactive)	–	> 100 µM (inactive)	> 100 µM (inactive)	> 100 µM (inactive)	> 100 µM (inactive)	–	> 100 µM (inactive)	> 100 µM (inactive)	> 100 µM (inactive)	87.1 µM (inactive)	> 100 µM (inactive)	–
O=C(c1cccs1)N(C(=S)OCc1ccccn1)c1ccccc1	> 100 µM (inactive)	96.4 µM (inactive)	76.9 µM (inactive)	88.1 µM (inactive)	38.3 µM (inactive)	> 100 µM (inactive)	69.2 µM (inactive)	> 100 µM (inactive)	> 100 µM (inactive)	23.4 µM (inactive)	47.8 µM (inactive)	42 µM (inactive)	35.2 µM (inactive)	38.4 µM (inactive)	84.9 µM (inactive)	33.2 µM (inactive)	51.2 µM (inactive)	> 100 µM (inactive)	28.8 µM (inactive)	–
Cc1[nH]n(-c2nc(O)c(C)c(=O)[nH]2)c(=O)c1CCO	> 100 µM (inactive)	–	–	> 100 µM (inactive)	> 100 µM (inactive)	> 100 µM (inactive)	> 100 µM (inactive)	> 100 µM (inactive)	> 100 µM (inactive)	> 100 µM (inactive)	> 100 µM (inactive)	> 100 µM (inactive)	–	> 100 µM (inactive)	> 100 µM (inactive)	> 100 µM (inactive)	> 100 µM (inactive)	> 100 µM (inactive)	> 100 µM (inactive)	> 100 µM (inactive)
CCN(CC)CCC(=O)N1C/C(=C/c2ccccc2)C(=O)/C(=C\c2ccccc2)C1	2.1 µM (inactive)	0.415 µM (active)	3.06 µM (inactive)	2.31 µM (inactive)	< 0.01 µM (active)	1.82 µM (inactive)	3.15 µM (inactive)	1.52 µM (inactive)	2.04 µM (inactive)	3.45 µM (inactive)	1.06 µM (active)	0.141 µM (active)	–	0.383 µM (active)	1.42 µM (inactive)	0.811 µM (active)	1.76 µM (inactive)	8.57 µM (inactive)	3.03 µM (inactive)	4.52 µM (inactive)
CN1CCC2(CC1)C(=O)N(NC(N)=O)C(=O)C2c1ccccc1 (stereo not drawn)	> 100 µM (inactive)	> 100 µM (inactive)	> 100 µM (inactive)	> 100 µM (inactive)	> 100 µM (inactive)	> 100 µM (inactive)	> 100 µM (inactive)	> 100 µM (inactive)	> 100 µM (inactive)	> 100 µM (inactive)	> 100 µM (inactive)	> 100 µM (inactive)	> 100 µM (inactive)	> 100 µM (inactive)	> 100 µM (inactive)	> 100 µM (inactive)	> 100 µM (inactive)	> 100 µM (inactive)	> 100 µM (inactive)	–
CCOC(=O)N/N=C(\CC)OCC	> 100 µM (inactive)	> 100 µM (inactive)	> 100 µM (inactive)	> 100 µM (inactive)	> 100 µM (inactive)	–	> 100 µM (inactive)	> 100 µM (inactive)	> 100 µM (inactive)	> 100 µM (inactive)	> 100 µM (inactive)	> 100 µM (inactive)	> 100 µM (inactive)	> 100 µM (inactive)	–	–	> 100 µM (inactive)	> 100 µM (inactive)	> 100 µM (inactive)	–
S=C1CC(c2ccccc2)Sc2ccc(Cl)cc2N1 (stereo not drawn)	18.1 µM (inactive)	> 100 µM (inactive)	46.5 µM (inactive)	63.7 µM (inactive)	16.4 µM (inactive)	41.1 µM (inactive)	42.9 µM (inactive)	37.4 µM (inactive)	37.9 µM (inactive)	> 100 µM (inactive)	4.56 µM (inactive)	16.2 µM (inactive)	86.3 µM (inactive)	24.4 µM (inactive)	30.8 µM (inactive)	60.7 µM (inactive)	22 µM (inactive)	56.6 µM (inactive)	90.8 µM (inactive)	–
CC1=NCC[N+]1(CCc1ccccc1)Cc1ccccc1 (stereo not drawn)	19.3 µM (inactive)	44.9 µM (inactive)	5.71 µM (inactive)	5.93 µM (inactive)	16 µM (inactive)	64.6 µM (inactive)	> 100 µM (inactive)	50.5 µM (inactive)	27.6 µM (inactive)	47.4 µM (inactive)	–	2.94 µM (inactive)	> 100 µM (inactive)	16.6 µM (inactive)	19.8 µM (inactive)	12.5 µM (inactive)	14.7 µM (inactive)	> 100 µM (inactive)	17.3 µM (inactive)	4.78 µM (inactive)
O=C(O)Cc1ccc(Oc2nc3ccccc3nc2-c2ccccc2)cc1	> 100 µM (inactive)	60.3 µM (inactive)	32.6 µM (inactive)	48.4 µM (inactive)	41.7 µM (inactive)	90.6 µM (inactive)	69.7 µM (inactive)	36.2 µM (inactive)	44.5 µM (inactive)	> 100 µM (inactive)	56 µM (inactive)	97.9 µM (inactive)	99.5 µM (inactive)	67.8 µM (inactive)	63.8 µM (inactive)	61.9 µM (inactive)	59.6 µM (inactive)	> 100 µM (inactive)	45.9 µM (inactive)	–
O=C1OC(=O)c2cc(S(=O)(=O)c3ccc4c(c3)C(=O)OC4=O)ccc21	> 100 µM (inactive)	> 100 µM (inactive)	> 100 µM (inactive)	> 100 µM (inactive)	> 100 µM (inactive)	> 100 µM (inactive)	> 100 µM (inactive)	> 100 µM (inactive)	> 100 µM (inactive)	> 100 µM (inactive)	> 100 µM (inactive)	> 100 µM (inactive)	> 100 µM (inactive)	–	> 100 µM (inactive)	> 100 µM (inactive)	> 100 µM (inactive)	> 100 µM (inactive)	> 100 µM (inactive)	–
COC(=O)[C@](C)(Cc1ccccc1)NC(=O)[C@@H](C)N1[C@@H](c2ccccc2)COC1(C)C	53.7 µM (inactive)	77.6 µM (inactive)	37.6 µM (inactive)	20.1 µM (inactive)	24.5 µM (inactive)	> 100 µM (inactive)	–	63.7 µM (inactive)	85.7 µM (inactive)	> 100 µM (inactive)	29.1 µM (inactive)	48.1 µM (inactive)	24.9 µM (inactive)	63.5 µM (inactive)	51.9 µM (inactive)	46.9 µM (inactive)	43.5 µM (inactive)	> 100 µM (inactive)	51.2 µM (inactive)	36 µM (inactive)
Cc1ccc(F)c2[nH]c(-c3ccccc3)cc(=O)c12	58.5 µM (inactive)	4.68 µM (inactive)	6.28 µM (inactive)	6.81 µM (inactive)	14.9 µM (inactive)	3.11 µM (inactive)	8.04 µM (inactive)	3.37 µM (inactive)	14.5 µM (inactive)	9.1 µM (inactive)	8.81 µM (inactive)	2.23 µM (inactive)	3.82 µM (inactive)	3.39 µM (inactive)	9.46 µM (inactive)	4.57 µM (inactive)	2.75 µM (inactive)	5.43 µM (inactive)	5.3 µM (inactive)	–
NC(Cc1ccc(S(=O)(=O)O)cc1)C(=O)NC(Cc1ccc(S(=O)(=O)O)cc1)C(=O)NC(Cc1ccc(S(=O)(=O)O)cc1)C(=O)NC(Cc1ccc(S(=O)(=O)O)cc1)C(=O)O (stereo not drawn)	> 100 µM (inactive)	> 100 µM (inactive)	> 100 µM (inactive)	> 100 µM (inactive)	> 100 µM (inactive)	> 100 µM (inactive)	> 100 µM (inactive)	> 100 µM (inactive)	> 100 µM (inactive)	> 100 µM (inactive)	> 100 µM (inactive)	–	> 100 µM (inactive)	> 10 µM (inactive)	> 100 µM (inactive)	> 100 µM (inactive)	> 100 µM (inactive)	> 100 µM (inactive)	> 100 µM (inactive)	–
